In ChEMBL document CHEMBL1201862, “PubChem BioAssay data set” (2004):
“And” between values parts separate entries of the source, which are not always exact repeats. Equal values may be shown once.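 Five concentrations, 48 hours, 96-well plates. Abbreviation: GI50, concentration required for 50% inhibition of growth.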 The source made the active and inactive calls. Cut-off read from the data, not from the text of the source: active = GI50 up to about 1.1 µM and inactive = higher.

Experiments:
Test in all cases: NCI-60 cell line screen, 48 h
BT-549 = tested on: BT-549
COLO 205 = tested on: COLO 205
HL-60 = tested on: HL-60
IGROV-1 = tested on: IGROV-1
K562 = tested on: K562
MCF7 = tested on: MCF7
MDA-MB-231 = tested on: MDA-MB-231
MDA-N = tested on: MDA-N
NCI-H522 = tested on: NCI-H522
PC-3 = tested on: PC-3
SF-268 = tested on: SF-268
SF-295 = tested on: SF-295
SNB-19 = tested on: SNB-19
SNB-75 = tested on: SNB-75
SR = tested on: SR
SW-620 = tested on: SW-620
U-251 = tested on: U-251
UO-31 = tested on: UO-31
CAKI-1 = tested on: CAKI-1
T47D = tested on: T47D

| SMILES | GI50 (BT-549) | GI50 (COLO 205) | GI50 (HL-60) | GI50 (IGROV-1) | GI50 (K562) | GI50 (MCF7) | GI50 (MDA-MB-231) | GI50 (MDA-N) | GI50 (NCI-H522) | GI50 (PC-3) | GI50 (SF-268) | GI50 (SF-295) | GI50 (SNB-19) | GI50 (SNB-75) | GI50 (SR) | GI50 (SW-620) | GI50 (U-251) | GI50 (UO-31) | GI50 (CAKI-1) | GI50 (T47D) |
| --- | --- | --- | --- | --- | --- | --- | --- | --- | --- | --- | --- | --- | --- | --- | --- | --- | --- | --- | --- | --- |
| O=C1CC(c2cccc([N+](=O)[O-])c2)C2(C(=O)NC(=O)NC2=O)C(c2cccc([N+](=O)[O-])c2)C1 (stereo unspecified) | > 100 µM (inactive) | > 100 µM (inactive) | > 100 µM (inactive) | 60.7 µM (inactive) | 67.6 µM (inactive) | 17.3 µM (inactive) | > 100 µM (inactive) | > 100 µM (inactive) | 78.2 µM (inactive) | 69.7 µM (inactive) | 19.7 µM (inactive) | 34.5 µM (inactive) | > 100 µM (inactive) | > 100 µM (inactive) | 55.6 µM (inactive) | > 100 µM (inactive) | > 100 µM (inactive) | 88.3 µM (inactive) |  |  |
| CCNC(=O)CCC(C)[C@H]1CCC2C3C(C[C@H](OC(C)=O)[C@@]21C)[C@@]1(C)CCC2(C[C@H]1C[C@H]3OC(C)=O)OOC1(CCC(C)CC1)OO2 (stereo partly specified) | 2.03 µM (inactive) and 1.57 µM (inactive) | 1.53 µM (inactive) and 1.65 µM (inactive) | 1.49 µM (inactive) and 1.97 µM (inactive) | 1.35 µM (inactive) and 1.41 µM (inactive) | 3.8 µM (inactive) | 2.56 µM (inactive) and 2.7 µM (inactive) | 2.1 µM (inactive) | 1.88 µM (inactive) and 2.65 µM (inactive) | 1.47 µM (inactive) and 1.22 µM (inactive) |  |  | 3.82 µM (inactive) and 2 µM (inactive) | 6.38 µM (inactive) and 4.21 µM (inactive) | 1.59 µM (inactive) and 1.95 µM (inactive) | 1.17 µM (inactive) and 1.03 µM (active) | 4.6 µM (inactive) and 2.74 µM (inactive) | 2.09 µM (inactive) and 1.6 µM (inactive) | 1.02 µM (active) and 1.35 µM (inactive) | 1.5 µM (inactive) and 820 nM (active) | 1.43 µM (inactive) and 1.68 µM (inactive) |
| CC(=O)CCC(=O)C(=[N+]=[N-])S(=O)(=O)c1ccccc1 | > 100 µM (inactive) | > 100 µM (inactive) | > 100 µM (inactive) | > 100 µM (inactive) | > 100 µM (inactive) | > 100 µM (inactive) | > 100 µM (inactive) | > 100 µM (inactive) | 45.8 µM (inactive) | > 100 µM (inactive) | > 100 µM (inactive) | > 100 µM (inactive) | > 100 µM (inactive) | > 100 µM (inactive) | > 100 µM (inactive) | > 100 µM (inactive) | > 100 µM (inactive) | > 100 µM (inactive) |  |  |
| COc1nc(N)nc2c1n(C)c[n+]2C | > 100 µM (inactive) | > 100 µM (inactive) | > 100 µM (inactive) | > 100 µM (inactive) | > 100 µM (inactive) |  | > 100 µM (inactive) | > 100 µM (inactive) | > 100 µM (inactive) | > 100 µM (inactive) | > 100 µM (inactive) | > 100 µM (inactive) | > 100 µM (inactive) | > 100 µM (inactive) |  | > 100 µM (inactive) | > 100 µM (inactive) | > 100 µM (inactive) | > 100 µM (inactive) | > 100 µM (inactive) |
| N=C(N)N/N=C/c1c(Cl)nc2n1CCS2 | > 100 µM (inactive) | 34.7 µM (inactive) | > 100 µM (inactive) | > 100 µM (inactive) | 53.2 µM (inactive) | 46.1 µM (inactive) |  | 29 µM (inactive) | 42.4 µM (inactive) | 66.5 µM (inactive) | 50.8 µM (inactive) | 99.1 µM (inactive) | > 100 µM (inactive) | > 100 µM (inactive) | 50.5 µM (inactive) | 73.8 µM (inactive) | 82.4 µM (inactive) | > 100 µM (inactive) | > 100 µM (inactive) | > 100 µM (inactive) |
| O=c1c(/C=C/c2c(O)ccc3ccccc23)nnc2sc(-c3cccc([N+](=O)[O-])c3)nn12 | 17.2 µM (inactive) | 26.5 µM (inactive) | 2.62 µM (inactive) | 15.3 µM (inactive) | 25.6 µM (inactive) |  | 7.33 µM (inactive) | 28.7 µM (inactive) | 9.33 µM (inactive) | 10.1 µM (inactive) | 8.93 µM (inactive) | 26.8 µM (inactive) |  |  | 4.38 µM (inactive) | 3.03 µM (inactive) | 7.6 µM (inactive) | 9.93 µM (inactive) | 19.1 µM (inactive) |  |
| C=C1C(=O)CC2C(=O)C(C)(O)CC/C=C(\C)C(=O)CC12 (stereo unspecified) | 15.8 µM (inactive) | 9.84 µM (inactive) | 1.53 µM (inactive) | 15.3 µM (inactive) | 6.37 µM (inactive) | 11.2 µM (inactive) | 26.7 µM (inactive) | 17.3 µM (inactive) | 3.19 µM (inactive) | 24.7 µM (inactive) | 19.5 µM (inactive) | > 100 µM (inactive) | > 91.4 µM (inactive) | > 41.9 µM (inactive) | 20.2 µM (inactive) | 6.37 µM (inactive) | > 49.5 µM (inactive) | 6.7 µM (inactive) | 3.17 µM (inactive) |  |
